Experimental data as given in patent publication US20120130146A1, “CONTINUOUS ADMINISTRATION OF CILENGITIDE IN CANCER TREATMENTS” (Merck Patent GmbH, priority 2009, published 2012).
Values joined by “and” are separate entries in the source; they are usually repeats but may differ in a detail not shown here. Equal entries are not always repeated.

How the values were obtained:
[1] = test system: advanced solid malignancy; assay: Phase I study of continuous infusion EMD 121974 in patients with advanced solid malignancy (safety); type: in vivo
Description: Background: Integrins avβ3 and avβ5 are cell-surface receptors that play a significant role in angiogenesis by mediating the ligation signal that allows endothelial cells to attach to the extracellular matrix. These integrins share the binding epitope Arg-Gly-Asp (RGD). EMD is an RGD-containing cyclic pentapeptide. In clinical studies to date, EMD has been administered in an intermittent fashion. […] Methods: EMD was administered as a continuous infusion without break in 4-week cycles. Plasma samples for pharmacokinetic studies were obtained weekly in cycle 1 immediately prior to and 2 hours after infusion bag change. Results: To date 21 patients (15 male/6 female, median age 56, median Karnofsky performance status 90%) have been treated at the following dose levels: 1, 2, 4, 8, 12, 18, and 27 mg/h. […] Non-hematologic toxicities have been limited to grade<2 and include alopecia, anorexia, diarrhea, fatigue, hypokalemia, hyponatremia, hypophosphatemia, insomnia, mucositis, nail changes, nausea, and transaminase elevation. […] Pharmacokinetic analysis has been completed for patients treated at the 12 mg/h dose level and below. […] Conclusions: EMD can be safely administered as a continuous infusion at doses of up to at least 18 mg/h. No single toxicity has been consistently observed.

[2] = Continuous infusion study pharmacokinetics (plasma); type: in vivo, human; details: for EMD 121974 Concentrations / CL / V / ke / Css: individual subjects; for CL: CL=Rate/Css; for V, Mean / ke, Mean / V: t1/2 = 4 hours; for V: V=CL/ke; for ke: for t1/2 = 4 hours; for Css: mean of 168 h to 506 h values per patient
Description: Patients with solid tumors received a continuous infusion of 1 mg/h, 2 mg/h, 4 mg/h, 8 mg/h or 12 mg/h. with a weekly change of infusion bag.
Blood samples were taken on Day 1 (first dose) at pre-dose and 2 h after start of infusion and then weekly just before change of infusion bag and 2 hours thereafter for the first 4 weeks.
The following pharmacokinetic parameters were derived at Merck KGaA. Darmstadt, Germany, by mathematical methods using Kinetica Version 4.1.1.
CL the total body clearance of EMD 121974 from plasma Css plasma concentration at steady state ke elimination rate constant Rate infusion rate t1/2, half life V Volume of distribution
Css, the plasma concentration at steady state, has been estimated by the arithmetic mean of all concentration values from time point 168 h to 506 h per patient.
From Css and t1/2 the PK parameters CL, ke and V were calculated as follows: […]

[3] = Rate 1 mg/h, listed as EMD 121974
[4] = Rate 2 mg/h, listed as EMD 121974
[5] = Rate 4 mg/h, listed as EMD 121974
[6] = Rate 8 mg/h, listed as EMD 121974

CC(C)[C@H]1C(=O)N[C@@H](CCCN=C(N)N)C(=O)NCC(=O)N[C@@H](CC(=O)O)C(=O)N[C@H](Cc2ccccc2)C(=O)N1C [Cilengitide, cyclo-(Arg-Gly-Asp-DPhe-NMeVal)]
dose that can be safely administered as a continuous infusion ([1]; human, in vivo): at least 18 mg/h | patient death ([1]; one patient treated at 27 mg/h, after two weeks of therapy): unobserved death of unknown cause | Mean values for half-life, clearance, and volume of distribution across dose levels ([2]; 12 mg/h dose level and below): comparable across dose levels | EMD 121974 Concentrations ([2]; Rate 1 mg/h, 0 h (pre-dose)): Undetectable | EMD 121974 Concentrations ([2]; Rate 1 mg/h, 2 h, listed as EMD 121974): 42.90 ng/mL and Undetectable | EMD 121974 Concentrations ([2]; Rate 1 mg/h, 168 h, listed as EMD 121974): 240.00 ng/mL | EMD 121974 Concentrations ([2]; Rate 1 mg/h, 170 h, listed as EMD 121974): 156.00 ng/mL and 10.30 ng/mL | EMD 121974 Concentrations ([2]; Rate 1 mg/h, 336 h, listed as EMD 121974): 324.00 ng/mL and 172.00 ng/mL | EMD 121974 Concentrations ([2]; Rate 1 mg/h, 338 h, listed as EMD 121974): 321.00 ng/mL and 153.00 ng/mL | CL [2, 3]: 3.84 L/h and 10.17 L/h and 10.93 L/h | V, Mean ([2]; Rate 1 mg/h): 48.0 L | ke, Mean ([2]; Rate 1 mg/h): 0.173 h⁻¹ | V [2, 3]: 22.2 L and 58.7 L and 63.1 L | ke ([2]; Rate 1 mg/h): 0.173 h⁻¹ | Css [2, 3]: 0.2603 µg/mL and 0.0984 µg/mL and 0.0915 µg/mL | EMD 121974 Concentrations ([2]; Rate 2 mg/h, 0 h (pre-dose)): Undetectable | EMD 121974 Concentrations ([2]; Rate 2 mg/h, 2 h, listed as EMD 121974): 162.00 ng/mL and Undetectable | EMD 121974 Concentrations ([2]; Rate 2 mg/h, 168 h, listed as EMD 121974): 189.00 ng/mL and 498.00 ng/mL | EMD 121974 Concentrations ([2]; Rate 2 mg/h, 170 h): 316.00 ng/mL | EMD 121974 Concentrations ([2]; Rate 2 mg/h, 170 h, listed as EMD 121974): 244.00 ng/mL | EMD 121974 Concentrations ([2]; Rate 2 mg/h, 336 h, listed as EMD 121974): 467.00 ng/mL and 523.00 ng/mL | EMD 121974 Concentrations ([2]; Rate 2 mg/h, 338 h, listed as EMD 121974): 327.00 ng/mL and 392.00 ng/mL | EMD 121974 Concentrations ([2]; Rate 2 mg/h, 504 h, listed as EMD 121974): 268.00 ng/mL and 485.00 ng/mL | EMD 121974 Concentrations ([2]; Rate 2 mg/h, 506 h, listed as EMD 121974): 247.00 ng/mL and 427.00 ng/mL | CL [2, 4]: 4.54 L/h | V, Mean ([2]; Rate 2 mg/h): 33.0 L | ke, Mean ([2]; Rate 2 mg/h): 0.173 h⁻¹ | V [2, 4]: 39.8 L and 26.2 L | ke ([2]; Rate 2 mg/h): 0.173 h⁻¹ | Css [2, 4]: 0.2903 µg/mL and 0.4402 µg/mL | EMD 121974 Concentrations ([2]; Rate 4 mg/h, 0 h (pre-dose)): Undetectable | EMD 121974 Concentrations ([2]; Rate 4 mg/h, 2 h, listed as EMD 121974): 228.00 ng/mL and 303.00 ng/mL and 454.00 ng/mL | EMD 121974 Concentrations ([2]; Rate 4 mg/h, 168 h, listed as EMD 121974): 467.00 ng/mL and 517.00 ng/mL and 894.00 ng/mL | EMD 121974 Concentrations ([2]; Rate 4 mg/h, 170 h, listed as EMD 121974): 408.00 ng/mL and 372.00 ng/mL and 843.00 ng/mL and 439.00 ng/mL | EMD 121974 Concentrations ([2]; Rate 4 mg/h, 336 h, listed as EMD 121974): 606.00 ng/mL and 847.00 ng/mL | EMD 121974 Concentrations ([2]; Rate 4 mg/h, 338 h, listed as EMD 121974): 283.00 ng/mL and 644.00 ng/mL and 711.00 ng/mL and 597.00 ng/mL | EMD 121974 Concentrations ([2]; Rate 4 mg/h, 504 h, listed as EMD 121974): 1170.00 ng/mL and 524.00 ng/mL and 482.00 ng/mL and 485.00 ng/mL | EMD 121974 Concentrations ([2]; Rate 4 mg/h, 506 h, listed as EMD 121974): 776.00 ng/mL and 649.00 ng/mL and 618.00 ng/mL | CL [2, 5]: 7.51 L/h and 5.96 L/h and 6.19 L/h | V, Mean ([2]; Rate 4 mg/h): 37.7 L | ke, Mean ([2]; Rate 4 mg/h): 0.173 h⁻¹ | V [2, 5]: 37.2 L and 43.3 L and 34.4 L and 35.7 L | ke ([2]; Rate 4 mg/h): 0.173 h⁻¹ | Css [2, 5]: 0.6208 µg/mL and 0.5326 µg/mL and 0.6713 µg/mL and 0.6467 µg/mL | EMD 121974 Concentrations ([2]; Rate 8 mg/h, 0 h (pre-dose)): Undetectable | EMD 121974 Concentrations ([2]; Rate 8 mg/h, 2 h, listed as EMD 121974): 603.00 ng/mL and 445.00 ng/mL and 462.00 ng/mL | EMD 121974 Concentrations ([2]; Rate 8 mg/h, 168 h, listed as EMD 121974): 1310.00 ng/mL and 881.00 ng/mL and 2190.00 ng/mL | EMD 121974 Concentrations ([2]; Rate 8 mg/h, 170 h, listed as EMD 121974): 862.00 ng/mL and 958.00 ng/mL and 1820.00 ng/mL | EMD 121974 Concentrations ([2]; Rate 8 mg/h, 336 h): 525.00 ng/mL | EMD 121974 Concentrations ([2]; Rate 8 mg/h, 338 h, listed as EMD 121974): 424.00 ng/mL and 1520.00 ng/mL | EMD 121974 Concentrations ([2]; Rate 8 mg/h, 504 h, listed as EMD 121974): 1610.00 ng/mL and 1440.00 ng/mL and 1830.00 ng/mL | EMD 121974 Concentrations ([2]; Rate 8 mg/h, 506 h, listed as EMD 121974): 1590.00 ng/mL and 771.00 ng/mL and 1500.00 ng/mL | CL [2, 6]: 5.96 L/h and 9.60 L/h and 4.51 L/h | V, Mean ([2]; Rate 8 mg/h): 38.6 L | ke, Mean ([2]; Rate 8 mg/h): 0.173 h⁻¹ | V [2, 6]: 34.4 L and 55.4 L and 26.1 L | ke ([2]; Rate 8 mg/h): 0.173 h⁻¹ | Css [2, 6]: 1.343 µg/mL and 0.8332 µg/mL and 1.772 µg/mL | EMD 121974 Concentrations ([2]; Rate 12 mg/h, 0 h (pre-dose)): Undetectable | EMD 121974 Concentrations ([2]; Rate 12 mg/h, 2 h, listed as EMD 121974): 722.00 ng/mL and 303.00 ng/mL and 472.00 ng/mL | EMD 121974 Concentrations ([2]; Rate 12 mg/h, 168 h, listed as EMD 121974): 777.00 ng/mL and 2550.00 ng/mL and 1980.00 ng/mL
